# Data as given in ChEMBL document CHEMBL3046312, “Synthesis and biologic evaluation of new 3-phenoxyazetidin-2-one derivatives as selective cyclooxygenase-2 inhibitors” (Med Chem Res, 2013).
# Target: T1, Prostaglandin G/H synthase 1 (Ovis aries, UniProt P05979)
# T1 sequence (P05979 whole entry): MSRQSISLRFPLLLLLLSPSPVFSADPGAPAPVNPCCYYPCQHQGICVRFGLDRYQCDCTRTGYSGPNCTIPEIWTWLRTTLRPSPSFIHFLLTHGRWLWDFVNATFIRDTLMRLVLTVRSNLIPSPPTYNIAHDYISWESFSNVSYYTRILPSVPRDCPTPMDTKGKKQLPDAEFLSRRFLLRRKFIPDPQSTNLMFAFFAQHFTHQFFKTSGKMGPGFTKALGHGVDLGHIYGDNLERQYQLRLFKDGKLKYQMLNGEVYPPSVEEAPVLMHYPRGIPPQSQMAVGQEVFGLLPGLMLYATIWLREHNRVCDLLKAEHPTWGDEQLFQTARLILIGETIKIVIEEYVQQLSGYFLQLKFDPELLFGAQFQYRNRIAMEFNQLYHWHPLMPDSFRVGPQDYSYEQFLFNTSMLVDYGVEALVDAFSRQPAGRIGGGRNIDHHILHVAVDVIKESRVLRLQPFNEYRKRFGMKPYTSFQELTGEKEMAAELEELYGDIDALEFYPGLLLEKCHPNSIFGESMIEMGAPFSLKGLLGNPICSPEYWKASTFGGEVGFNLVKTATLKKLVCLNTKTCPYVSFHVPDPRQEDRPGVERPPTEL
# Assay: Inhibition of Ovis aries (sheep) cyclooxygenase-1 using arachidonic acid as substrate by chemiluminescent assay
row,Structure (SMILES),IC50 [µM]
1,CS(=O)(=O)c1ccc([C@@H]2[C@H](Oc3ccccc3)C(=O)N2C2CCCCC2)cc1 (relative stereo),19.5
2,CCCCN1C(=O)[C@@H](Oc2ccccc2)[C@H]1c1ccc(S(C)(=O)=O)cc1 (relative stereo),20.9
3,CCCN1C(=O)[C@@H](Oc2ccccc2)[C@H]1c1ccc(S(C)(=O)=O)cc1 (relative stereo),21.7
4,CS(=O)(=O)c1ccc([C@@H]2[C@H](Oc3ccccc3)C(=O)N2c2ccc(Cl)cc2)cc1 (relative stereo),18.3
5,CC(C)N1C(=O)[C@@H](Oc2ccccc2)[C@H]1c1ccc(S(C)(=O)=O)cc1 (relative stereo),21.8
6,Cc1ccc(N2C(=O)[C@@H](Oc3ccccc3)[C@H]2c2ccc(S(C)(=O)=O)cc2)cc1 (relative stereo),18.1
7,CS(=O)(=O)c1ccc([C@@H]2[C@H](Oc3ccccc3)C(=O)N2c2ccccc2)cc1 (relative stereo),19.9
8,CCCCCN1C(=O)[C@@H](Oc2ccccc2)[C@H]1c1ccc(S(C)(=O)=O)cc1 (relative stereo),21.2
9,COc1ccc(N2C(=O)[C@@H](Oc3ccccc3)[C@H]2c2ccc(S(C)(=O)=O)cc2)cc1 (relative stereo),19.2
10,CS(=O)(=O)c1ccc([C@@H]2[C@H](Oc3ccccc3)C(=O)N2c2ccc(F)cc2)cc1 (relative stereo),19
